For four molecules, Activity and Ratio results are on record in ChEMBL document CHEMBL1151376, “Inhibition of Mitochondrial Function in Termite Queen Ovary by Rabdosia Diterpenoids” (J Nat Prod, 1981).

Assay type in all cases: functional
Settings in all cases: Female gonad

Test [1] relates to Macrotermes subhyalinus. Nature of the test: Effect on oxygen consumption in Macrotermes subhyalinus ovary mitochondria assessed as inhibition of state 3 respiration assessed oxygen atom per mg protein per min at 100 uM by polarographic analysis.
For test [2], the system named is Macrotermes subhyalinus. As to the kind of experiment: Effect on oxygen consumption in Macrotermes subhyalinus ovary mitochondria assessed as inhibition of state 4 respiration assessed oxygen atom per mg protein per min at 100 uM by polarographic analysis.
Test [3] relates to Macrotermes subhyalinus. As to the kind of experiment: Effect on oxygen consumption in Macrotermes subhyalinus ovary mitochondria assessed as inhibition of state 4U respiration assessed oxygen atom per mg protein per min at 100 uM in presence of 2,4-dinitrophenol by polarographic analysis.
Test [4] concerns Macrotermes subhyalinus. Nature of the test: Inhibition of oxidative phosphorylation in Macrotermes subhyalinus ovary mitochondria assessed as respiratory control ratio assessed oxygen atom per mg protein per min at 100 uM.
The subject of test [5] is Macrotermes subhyalinus. As to the kind of experiment: Inhibition of oxidative phosphorylation in Macrotermes subhyalinus ovary mitochondria assessed as ADP/O ratio at 100 uM.
Test [6] concerns Macrotermes subhyalinus. Nature of the test: Effect on phosphorylation rate in Macrotermes subhyalinus ovary mitochondria assessed as nmoles ATP synthesized per mg protein per min at 100 uM.
For test [7], the system named is Macrotermes subhyalinus. As to the kind of experiment: Effect on oxygen consumption in Macrotermes subhyalinus ovary mitochondria assessed as inhibition of state 3 respiration assessed oxygen atom per mg protein per min at 250 uM by polarographic analysis.
Test [8] has as its system Macrotermes subhyalinus. Nature of the test: Effect on oxygen consumption in Macrotermes subhyalinus ovary mitochondria assessed as inhibition of state 4 respiration assessed oxygen atom per mg protein per min at 250 uM by polarographic analysis.
The subject of test [9] is Macrotermes subhyalinus. Nature of the test: Effect on oxygen consumption in Macrotermes subhyalinus ovary mitochondria assessed as inhibition of state 4U respiration assessed oxygen atom per mg protein per min at 250 uM in presence of 2,4-dinitrophenol by polarographic analysis.
Test [10] concerns Macrotermes subhyalinus. As to the kind of experiment: Inhibition of oxidative phosphorylation in Macrotermes subhyalinus ovary mitochondria assessed as respiratory control ratio assessed oxygen atom per mg protein per min at 250 uM.
In test [11] the test system is Macrotermes subhyalinus. As to the kind of experiment: Inhibition of oxidative phosphorylation in Macrotermes subhyalinus ovary mitochondria assessed as ADP/O ratio at 250 uM.
For test [12], the system named is Macrotermes subhyalinus. As to the kind of experiment: Effect on phosphorylation rate in Macrotermes subhyalinus ovary mitochondria assessed as nmoles ATP synthesized per mg protein per min at 250 uM.

Turning to `C=C1C(=O)[C@]23C[C@H]1C[C@H](O)[C@H]2[C@]1(COC(C)=O)[C@H](CCC(C)(C)[C@H]1C=O)OC3=O`, the Activity in test [1] turned out to be 118; in test [2] it was 44.2; in test [3], 41.2; in [6], 121. The Ratio in test [4] turned out to be 2.66; in test [5] it was 1.03.
As for `C=C1C(=O)[C@]23[C@H](O)[C@H]1CC[C@H]2[C@@]12CO[C@]3(O)[C@@H](O)[C@@H]1C(C)(C)CC[C@@H]2O`, the Activity in test [1] came to 118; in test [2] it was 32.4; in test [3] it was 106; in [6], 156. Further, the Ratio in [4] came out at 3.63; in test [5], 1.33.
On to `C=C1C(=O)[C@]23C[C@H]1CC[C@H]2[C@@]12CO[C@@H](O)[C@@H]1C(C)(C)[C@@H](O)C[C@@H]2OC3=O`, for which the Activity stood at 115 in [1], 33.6 in test [2], 104 in test [3] and 186 in [6]. Further, the Ratio in test [4] was 3.41; in [5], 1.62.
Turning to `C=C1C(=O)[C@]23C[C@H]1C[C@@H](O)[C@H]2[C@@]12CO[C@@H](O)[C@@H]1C(C)(C)CC[C@@H]2OC3=O`, the Activity in test [7] turned out to be 94.8; in test [8] it was 41.2; in [9], 61.8; in [12], 170. Further, the figures for the Ratio in test [10] and in test [11] were 2.3 and 1.79, respectively.
